Key:
[1] = Concentration in rat brain after 0.75 h at 100 umol/kg, po; type: ADME, organism-based; conditions: read-out: Drug uptake
Rattus norvegicus [2] = test: Maximum efficacy in rat CFA model at 300 umol/kg; type: functional
Rattus norvegicus [3] = test: Potency against persistent inflammatory pain in orally dosed rat CFA model; type: functional; conditions: po

NC(C(=O)O)c1cccc(Cl)c1 (stereo not given)
concentration at 0.75 h [1]: 1760 ng/g
Efficacy (Rattus norvegicus [2]): 64%

N[C@H](C(=O)O)c1ccccc1
concentration at 0.75 h [1]: 6300 ng/g
ED50 (Rattus norvegicus [3]): 100 µmol/kg

N[C@@H](CC1CCCCC1)C(=O)O
ED50 (Rattus norvegicus [3]): 200 µmol/kg

NCC1(CC(=O)O)CCCCC1 [GABAPENTIN]
concentration at 0.75 h [1]: 3410 ng/g
ED50 (Rattus norvegicus [3]): 125 µmol/kg

N[C@@H](CCSCc1ccccc1)C(=O)O
concentration at 0.75 h [1]: 430 ng/g
ED50 (Rattus norvegicus [3]): 120 µmol/kg

NC(CCSCc1ccc(Br)cc1)C(=O)O (stereo not given)
ED50 (Rattus norvegicus [3]): > 300 µmol/kg
